Source: patent US9493441B2, “Acyclic cyanoethylpyrazoles as janus kinase inhibitors” (Merck Sharp & Dohme Corp., priority 2011, dated 2016)
Like-named read-outs stand apart in the source and are kept apart here.

How the values were obtained:
JAK1 = JAK1 (Homo sapiens (Human), UniProt P23458); experiment: Jak biochemical HTRF assay, JAK1
JAK2 = JAK2 (Homo sapiens (Human), UniProt O60674); experiment: Jak biochemical HTRF assay, JAK2
[1] = JAK1 IC50 (nM), recombinant GST-tagged catalytic domain, [ATP] 31.8 μM
[2] = JAK2 IC50 (nM), recombinant GST-tagged catalytic domain, [ATP] […]
[3] = read-out: JAK1 IC50, recombinant GST-tagged catalytic domain, [ATP] 31.8 μM
[4] = read-out: JAK2 IC50, recombinant GST-tagged catalytic domain, [ATP] […]

Chain of JAK1 (P23458 875-1153): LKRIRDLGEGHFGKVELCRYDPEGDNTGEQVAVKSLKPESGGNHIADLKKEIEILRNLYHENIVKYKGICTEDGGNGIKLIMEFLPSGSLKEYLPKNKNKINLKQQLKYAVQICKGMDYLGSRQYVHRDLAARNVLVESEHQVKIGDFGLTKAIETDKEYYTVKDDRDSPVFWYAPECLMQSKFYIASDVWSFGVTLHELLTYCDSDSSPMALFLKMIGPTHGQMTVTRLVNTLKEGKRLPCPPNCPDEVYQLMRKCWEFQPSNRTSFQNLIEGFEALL
Chain of JAK2 (O60674 849-1124): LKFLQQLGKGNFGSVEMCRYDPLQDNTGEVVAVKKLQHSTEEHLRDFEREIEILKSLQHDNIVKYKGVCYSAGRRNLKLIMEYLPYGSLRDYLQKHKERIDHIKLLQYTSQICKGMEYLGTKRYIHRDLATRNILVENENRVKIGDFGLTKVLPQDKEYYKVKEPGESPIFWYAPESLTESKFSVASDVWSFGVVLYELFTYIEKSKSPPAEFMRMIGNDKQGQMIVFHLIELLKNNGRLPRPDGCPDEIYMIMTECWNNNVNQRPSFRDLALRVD

| Molecule | IC50 (JAK1; [1]) | IC50 (JAK2; [2]) | IC50 (JAK1; [3]) | IC50 (JAK2; [4]) |
| --- | --- | --- | --- | --- |
| CC(C)(O)c1cn(Cc2cccc(Nc3nn(C(CC#N)C4CCCC4)cc3C(N)=O)c2)nn1 (stereo not shown) [Example 1-8, 1-(2-cyano-1-cyclopentylethyl)-3-[(3-{[4-(1-hydroxy-1-methylethyl)-1H-1,2,3-triazol-1-yl]methyl}phenyl)amino]-1H-pyrazole-4-carboxamide] | 194 nM | 999 nM | – | – |
| N#CCC(C1CC1)n1cc(C(N)=O)c(Nc2ccccc2F)n1 (stereo not shown) [Example 6-2, 1-(2-cyano-1-cyclopropylethyl)-3-[(2-fluorophenyl)amino]-1H-pyrazole-4-carboxamide] | – | – | 360 nM | 1480 nM |
| N#CC[C@@H](C1CCN(C(=O)OC2CCCC2)CC1)n1cc(C(N)=O)c(Nc2ccc(F)cc2)n1 [Example 11-6, cyclopentyl 4-[(1S)-1-{4-carbamoyl-3-[(4-fluorophenyl)amino]-1H-pyrazol-1-yl}-2-cyanoethyl]piperidine-1-carboxylate] | 69 nM | 1200 nM | – | – |
| N#CCCn1cc(C(N)=O)c(Nc2ccccc2)n1 [Example 1-4, 1-(2-cyanoethyl)-3-(phenylamino)-1H-pyrazole-4-carboxamide] | 348 nM | 1190 nM | – | – |
| CC(C)(C)CC(CC#N)n1cc(C(N)=O)c(Nc2ccccc2)n1 (stereo not shown) [Example 1-13] | 598 nM | 1480 nM | – | – |
| C[C@H](CC#N)n1cc(C(N)=O)c(Nc2ccccc2)n1 (single isomer, unassigned) [Example 17-2, 1-[(2S or 2R)-1-cyanopropan-2-yl]-3-(phenylamino)-1H-pyrazole-4-carboxamide] | – | – | 47 nM | 469 nM |
| N#CCC(C1CC1)n1cc(C(N)=O)c(Nc2ccnc(Cl)c2)n1 (stereo not shown) [Example 4-27, 3-[(2-chloropyridin-4-yl)amino]-1-(2-cyano-1-cyclopropylethyl)-1H-pyrazole-4-carboxamide] | 166 nM | 290 nM | – | – |
| N#CC[C@@H](C1CCN(C(=O)OC2CCOCC2)CC1)n1cc(C(N)=O)c(Nc2ccc(F)cc2)n1 [Example 11-8, tetrahydro-2H-pyran-4-yl 4-[(1S)-1-{4-carbamoyl-3-[(4-fluorophenyl)amino]-1H-pyrazol-1-yl}-2-cyanoethyl]piperidine-1-carboxylate] | 220 nM | 1500 nM | – | – |
| CC[C@H](CC#N)n1cc(C(N)=O)c(Nc2ccccc2)n1 (single isomer, unassigned) [Example 16-1, 1-[(1R or 1S)-1-(cyanomethyl)propyl]-3-(phenylamino)-1H-pyrazole-4-carboxamide] | – | – | 43 nM | 578 nM |
| COCCOC(=O)N1CCC([C@H](CC#N)n2cc(C(N)=O)c(Nc3ccc(F)cc3)n2)CC1 [Example 12-1, 2-Methoxyethyl 4-[(1S)-1-{4-carbamoyl-3-[(4-fluorophenyl)amino]-1H-pyrazol-1-yl}-2-cyanoethyl]piperidine-1-carboxylate] | 181 nM | 1500 nM | – | – |
| CC(C)(C)OC(=O)N1CCC(C(CC#N)n2cc(C(N)=O)c(Nc3ccccc3)n2)CC1 (single isomer, unassigned) [Example 15-1, tert-Butyl 4-{(1S or 1R)-1-[4-carbamoyl-3-(phenylamino)-1H-pyrazol-1-yl]-2-cyanoethyl}piperidine-1-carboxylate] | – | – | 13 nM | 601 nM |
| 1-[(1R or 1S)-2-cyano-1-cyclopropylethyl]-3-{[4-(methylsulfonyl)phenyl]amino}-1H-pyrazole-4-carboxamide [Example 14-2] | – | – | 5 nM | 55 nM |
| N#CCC(C1CC1)n1cc(C(N)=O)c(Nc2cncc(C#N)c2)n1 (stereo not shown) [Example 4-18, 1-(2-cyano-1-cyclopropylethyl)-3-[(5-cyanopyridin-3-yl)amino]-1H-pyrazole-4-carboxamide] | 131 nM | 425 nM | – | – |
| N#CCC(C1CCCC1)n1cc(C(N)=O)c(Nc2ccccc2)n1 (single isomer, unassigned) [Example 16-4, 1-[(1S or 1R)-2-cyano-1-cyclopentylethyl]-3-(phenylamino)-1H-pyrazole-4-carboxamide] | 141 nM | 567 nM | – | – |

More lines, in order of falling IC50 (JAK1; [1]), values ahead:

| IC50 (JAK1; [1]) | IC50 (JAK2; [2]) | IC50 (JAK1; [3]) | IC50 (JAK2; [4]) | Molecule |
| --- | --- | --- | --- | --- |
| 64 nM | 641 nM | – | – | CC(C)C(CC#N)n1cc(C(N)=O)c(Nc2ccccc2)n1 (stereo not shown) [Example 1-11, 1-[1-(cyanomethyl)-2-methylpropyl]-3-(phenylamino)-1H-pyrazole-4-carboxamide] |
| 59 nM | 524 nM | – | – | CC(C#N)Cn1cc(C(N)=O)c(Nc2ccc(F)cc2)n1 (stereo not shown) [Example 9, 1-(2-Cyanopropyl)-3-[(4-fluorophenyl)amino]-1H-pyrazole-4-carboxamide] |
| 46 nM | 1040 nM | – | – | CC(OC(=O)N1CCC([C@H](CC#N)n2cc(C(N)=O)c(Nc3ccc(F)cc3)n2)CC1)C(F)(F)F (stereo partly drawn) [Example 11-11, 2,2,2-trifluoro-1-methylethyl 4-[(1S)-1-{4-carbamoyl-3-[(4-fluorophenyl)amino]-1H-pyrazol-1-yl}-2-cyanoethyl]piperidine-1-carboxylate] |
| 44 nM | 1160 nM | – | – | N#CC[C@@H](C1CCN(C(=O)OCC2CC2)CC1)n1cc(C(N)=O)c(Nc2ccc(F)cc2)n1 [Example 11-10, cyclopropylmethyl 4-[(1S)-1-{4-carbamoyl-3-[(4-fluorophenyl)amino]-1H-pyrazol-1-yl}-2-cyanoethyl]piperidine-1-carboxylate] |
| 41 nM | 262 nM | – | – | N#CCC(C1CC1)n1cc(C(N)=O)c(Nc2ccc(-c3cnco3)cc2)n1 (stereo not shown) [Example 4-24, 1-(2-cyano-1-cyclopropylethyl)-3-{[4-(1,3-oxazol-5-yl)phenyl]amino}-1H-pyrazole-4-carboxamide] |
| 33 nM | 76 nM | – | – | N#CCC(C1CC1)n1cc(C(N)=O)c(Nc2cccnc2)n1 (stereo not shown) [Example 4-6, 1-(2-cyano-1-cyclopropylethyl)-3 - (pyridin-3-ylamino)-1H-pyrazole-4-carboxamide] |
| 19 nM | 64 nM | – | – | N#CCC(C1CC1)n1cc(C(N)=O)c(Nc2cccc(C#N)c2)n1 (stereo not shown) [Example 4-16, 1-(2-cyano-1-cyclopropylethyl)-3-[(3-cyanophenyl)amino]-1H-pyrazole-4-carboxamide] |
| 10 nM | 79 nM | – | – | N#CCC(C1CC1)n1cc(C(N)=O)c(Nc2ccccc2)n1 (stereo not shown) [Example 1-1, 1-(2-Cyano-1-cyclopropylethyl)-3-(phenylamino)-1H-pyrazole-4-carboxamide] |
| 9 nM | 66 nM | – | – | N#CCC(C1CC1)n1cc(C(N)=O)c(Nc2ccc(F)cc2)n1 (stereo not drawn) [Example 4-11, l-(2-cyano-1-cyclopropylethyl)-3-[(4-fluorophenyl)amino]-1H-pyrazole-4-carboxamide] |
| 5 nM | 39 nM | – | – | Cc1noc(-c2ccc(Nc3nn(C(CC#N)C4CC4)cc3C(N)=O)cc2)n1 (stereo not shown) [Example 4-36, 1-(2-cyano-1-cyclopropylethyl)-3-{[4-(3-methyl-1,2,4-oxadiazol-5-yl)phenyl]amino}-1H-pyrazole-4-carboxamide] |
| 3 nM | 16 nM | – | – | CN(C)C(=O)c1ccc(Nc2nn(C(CC#N)C3CC3)cc2C(N)=O)cc1 (stereo not shown) [Example 4-22, 1-(2-cyano-1-cyclopropylethyl)-3-{[4-(dimethylcarbamoyl)phenyl]amino}-1H-pyrazole-4-carboxamide] |
| 3 nM | 28 nM | – | – | CS(=O)(=O)c1ccc(Nc2nn(C(CC#N)C3CC3)cc2C(N)=O)cc1 (stereo not shown) [Example 4-1, 1-(2-Cyano-1-cyclopropylethyl)-3-{[4-(methylsulfonyl)phenyl]amino}-1H-pyrazole-4-carboxamide] |
| 2 nM | 7 nM | – | – | N#CCC(C1CC1)n1cc(C(N)=O)c(Nc2ccc3c(c2)CN(CC(F)(F)F)C3=O)n1 (stereo not shown) [Example 4-31, 1-(2-cyano-1-cyclopropylethyl)-3-{[1-oxo-2-(2,2,2-trifluoroethyl)-2,3-dihydro-1H-isoindol-5-yl]amino}-1H-pyrazole-4-carboxamide] |
| 2 nM | 21 nM | – | – | CNC(=O)c1ccc(Nc2nn(C(CC#N)C3CC3)cc2C(N)=O)cc1 (stereo not shown) [Example 4-13, 1-(2-cyano-1-cyclopropylethyl)-3-{[4-(methylcarbamoyl)phenyl]amino}-1H-pyrazole-4-carboxamide] |
| 1 nM | 15 nM | – | – | N#CCC(C1CC1)n1cc(C(N)=O)c(Nc2ccc3c(c2)CCS3(=O)=O)n1 (stereo not shown) [Example 5, 1-(2-Cyano-1-cyclopropylethyl)-3-[(1,1-dioxido-2,3-dihydro-1-benzothiophen-5-yl)amino]-1H-pyrazole-4-carboxamide] |
